Test results as given in patent US6916825B2, “Alkylated imidazopyridine derivatives” (Altana Pharma AG, priority 2000, dated 2005).

Assays:
[1] = test system: acid secretion of the perfused rat stomach stimulated by pentagastrin; assay: Secretion-inhibiting action on perfused rat stomach (pentagastrin-stimulated acid secretion); assay type: in vivo; conditions: anesthetized CD rats, dose 1 μmol/kg i.v.
From the text: Testing of the Secretion-inhibiting Action on Perfused Rat Stomach
In table A below, the influence of the compounds according to the invention after intravenous administration is shown on the acid secretion of the perfused rat stomach stimulated by pentagastrin.
The abdomen of anesthetized rats (CD rats, female, 200-250 g; 1.5 g/kg of i.m. urethane) was opened after tracheotomy by a median upper abdominal incision and a PVC catheter was fixed transorally in the esophagus and a further one via the pylorus such that the ends of the tubing just still projected into the gastric lumen. The catheter leading from the pylorus led outwards via a side opening in the right abdominal wall.
After thorough rinsing (about 50-100 ml), a continuous flow of warm physiological NaCl solution (0.5 ml/min, pH 6.8-6.9; Braun-Unita I) was continuously passed through the stomach at 37° C. The pH in the effluent, in each case collected at an interval of 15 minutes, was determined (pH meter 632, glass electrode EA 147; φ=5 mm, Metrohm) and the secreted HCl was determined by titration with a freshly prepared 0.01 N NaOH solution to pH 7 (Dosimat 665 Metrohm).
Gastric secretion was stimulated by continuous infusion of 1 μg/kg (=1.65 ml/h) of i.v. pentagastrin (left femoral vein) about 30 min after the end of the operation (i.e. after determination of 2 preliminary fractions). The substances to be tested were administered intravenously in 1 ml/kg of fluid volume 60 min after the start of the pentagastrin continuous infusion.
The body temperature of the animals was kept at a constant 37.8-38° C. by means of infrared irradiation and heating pads (automatic, step-free control via a rectal temperature sensor).

SMILES | melting point | Inhibition of acid secretion [1]
Cc1nc2c3c(ccn2c1C)C(=O)[C@@](C)(O)[C@@H](c1ccccc1)N3 [Example 1, (8S,9R)-2,3,8-Trimethyl-8-hydroxy-9-phenyl-7,8,9,10-tetrahydroimidazo[1,2-h][1,7]naphthyridin-7-one] | 240 °C | 
Cc1nc2c3c(ccn2c1C)[C@@H](O)[C@@](C)(O)[C@@H](c1ccccc1)N3 [Example 2, (7R,8S,9R)-2,3,8-Trimethyl-7,8-dihydroxy-9-phenyl-7,8,9,10-tetrahydroimidazo[1,2-h][1,7]naphthyridine] | 180 °C | 100%
Cc1nc2c3c(ccn2c1C)C(=O)[C@](O)(Cc1ccccc1)[C@@H](c1ccccc1)N3 [Example 3, (8S,9R)-2,3-Dimethyl-8-benzyl-8-hydroxy-9-phenyl-7,8,9,10-tetrahydroimidazo[1,2-h][1,7]naphthyridin-7-one] | 248 to 251 °C | 
Cc1nc2c3c(ccn2c1C)[C@H](O)[C@](O)(Cc1ccccc1)[C@@H](c1ccccc1)N3 [Example 4, (7S,8S,9R)-2,3-Dimethyl-8-benzyl-7,8-dihydroxy-9-phenyl-7,8,9,10-tetrahydroimidazo[1,2-h][1,7]-naphthyridine] | 115 to 122 °C | 
CO[C@H]1c2ccn3c(C)c(C)nc3c2N[C@H](c2ccccc2)[C@]1(C)O [Example 7, (7S,8S,9R)-2,3,8-Trimethyl-7-methoxy-8-hydroxy-9-phenyl-7,8,9,10-tetrahydroimidazo[1,2-h]-[1,7]naphthyridine] | 190 °C | 
Cc1nc2c3c(ccn2c1C)[C@@](C)(O)[C@H](O)[C@@H](c1ccccc1)N3 [Example 8, (7R,8R,9R)-2,3,7-Trimethyl-7,8-dihydroxy-9-phenyl-7,8,9,10-tetrahydroimidazo[1,2-h][1,7]-naphthyridine] | 137 to 138 °C | 100%
C=C1c2ccn3c(C)c(C)nc3c2N[C@H](c2ccccc2)[C@H]1O [Example 10, (8S,9R)-2,3-Dimethyl-8-hydroxy-7-methylidene-9-phenyl-7,8,9,10-tetrahydroimidazo[1,2-h][1,7]-naphthyridine] | 199 to 202 °C | 100%
Cc1nc2c3c(ccn2c1C)[C@@](C)(O)[C@H](O)[C@@H](c1ccccc1)O3 [Example 12, (7R,8R,9R)-2,3,7-Trimethyl-7,8-dihydroxy-9-phenyl-7H-8,9-dihydropyrano[2,3-c]imidazo[1,2-a]-pyridine] |  | 100%
